Measured values as given in publication PMC13408523, “Psoralen and Seselin Stabilize the α-helix Structure in Lysozyme and Inhibit the α-helix to β-sheet Exchange: An Efficient Anti-Amyloidogenic Mechanism” (Advanced Pharmaceutical Bulletin, 2025).
Read-outs that look alike come from different tables or passages of the source.

Target: T1, hen egg white lysozyme (HEWL) (Gallus gallus, UniProt P00698)
T1 construct: gene LYZ
Test: SPR (HEWL amine-coupled on CMD gold chip, […]°C); intrinsic fluorescence quenching
Assay type: binding

T1 sequence (P00698 19-147): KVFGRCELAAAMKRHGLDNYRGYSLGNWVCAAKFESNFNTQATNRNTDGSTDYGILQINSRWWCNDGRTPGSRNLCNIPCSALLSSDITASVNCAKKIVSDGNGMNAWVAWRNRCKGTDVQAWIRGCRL

## O=c1ccc2cc3ccoc3cc2o1 [psoralen]
  Kd: 9.32 µM

## CC1(C)C=Cc2c(ccc3ccc(=O)oc23)O1 [seselin]
read-out: Kd
  Kd: 46.8 µM
